From patent US6573286B1, “2-(2,6-disubstituted phenyl)-4-aryl-5-alkyl-1,3-oxazoline compounds” (Dow AgroSciences LLC, priority 2002, dated 2003)

Assays:
Format in all cases: in vivo
[1] = system: two-spotted spider mite (Tetranychus urticae); test: Insecticidal test for two-spotted spider mite, ovicide method; conditions: Tetranychus urticae, foliar, 144 h, ovicide method on cotton leaf discs, 6 days, read-out: SM: activity against two-spotted spider mite (% Control rating)
Description: Insecticidal test for two-spotted spider mite (Tetranychus urticae) Ovicide Method: Ten adult female two-spotted spider mites were placed on eight 2.2 cm leaf discs of cotton leaf, allowed to oviposit over 24 hours, and thereafter removed. […] Discs were placed on an agar substrate and held at 24° C. and 90% RH for 6 days.

[2] = system: cotton aphid (Aphis gossypii); test: Insecticidal test for cotton aphid, sprayed squash cotyledons; conditions: 50 ppm spray, graded after 3 days
Description: Insecticidal test for cotton aphid (Aphis gossypii) To prepare spray solutions, 1 mg of each test compound was dissolved into 1 mL of a 90:10 acetone:ethanol solvent. This 1 mL of chemical solution was added to 19 mL of water containing 0.05% Tween 20 surfactant to produce a 50 ppm spray solution. Squash cotyledons were infested with cotton aphid (all life stages) 16-20 hours prior to application of spray solution. The solution was sprayed on both sides of each infested squash cotyledon (0.5 mL×2 each side) with a sweeping action until runoff. The plants were allowed to air dry and held for 3 days in a controlled room at 26° C. and 40% RH after which time the test was graded. Grading was by actual count using a dissecting microscope and comparison of test counts to the untreated check.

[3] = system: tobacco budworm (Heliothis virescens); test: Insecticidal test for tobacco budworm, treated cotton cotyledon leaf disc; conditions: Heliothis virescens, foliar, 120 h, 2nd instar larvae on dipped cotton cotyledon discs, 5 days, read-out: TBW: activity against tobacco budworm (% Control rating)
Description: (§1) Insecticidal test for tobacco budworm (Heliothis virescens), beet armyworm (Spodoptera exigua), and cabbage looper (Trichoplusia ni). To prepare test solution, the test compound was formulated at 400 ppm in 7.5 mL of 2 acetone:1 tap water. 250 μL of the test solution was pipetted upon the surface of 8 mL of lepidopteran diet (modified Shorey) contained in each of five one-ounce plastic cups (one cup=1 replication). […] After air-drying, the treated leaf discs were placed individually into one-ounce plastic cups. Each dried, treated cotton cotyledon disc was infested with a 2nd instar tobacco budworm larva, and each cabbage leaf disc was infested with a 2nd instar cabbage looper larva. Cups containing the treated substrates and larvae were capped and then held in a growth chamber at 25° C., 50-55% RH, and 14 hr light:10 hr dark for 5 days.

[4] = system: cabbage looper (Trichoplusia ni); test: Insecticidal test for cabbage looper, treated cabbage leaf disc; conditions: Trichoplusia ni, foliar, 120 h, 2nd instar larvae on dipped cabbage leaf discs, 5 days, read-out: CL: activity against cabbage looper (% Control rating)
Description: as §1

[5] = system: beet armyworm (Spodoptera exigua); test: Insecticidal test for beet armyworm, treated lepidopteran diet; conditions: Spodoptera exigua, 120 h, 2nd instar larvae on treated diet, 5 days, read-out: BAW: activity against beet armyworm (% Control rating)
Description: as §1

[6] = system: Sweetpotato Whitefly (Bemisia tabacia); test: Insecticidal test for Sweetpotato Whitefly, sprayed cotton plants; conditions: Bemisia, 312 h, 200 ppm spray, large nymphs counted after 13 days, read-out: WF: activity against whitefly (% Control rating)
Description: Insecticidal test for Sweetpotato Whitefly (Bemisia tabacia) Four mg of each test compound were dissolved by adding 4 mL of a 90:10 acetone:ethanol solvent mixture to the vial containing the sample compound. This solution was added to 16 mL of water containing 0.05% Tween 20 surfactant to produce 20 mL of a 200 ppm spray solution. Five-week-old cotton plants reared in a greenhouse were stripped of all foliage except for the two uppermost true leaves that were greater than 5 cm in diameter. These plants were then placed into a laboratory colony of whiteflies for two days for oviposition by the colony females. All whiteflies were then removed from the test plants with pressurized air. The spray solution was then applied to the test plants with a hand-held syringe fitted with hollow cone nozzle. One mL spray solution was applied to each leaf top and bottom for a total of 4 mL per plant. Four replications of each test compound utilized a total of 16 mL spray solution. Plants were air dried and then placed in a holding chamber (28° C. and 60% RH) for 13 days. Compound efficacy was evaluated by counting, under an illuminated magnifying glass, the number of large nymphs (3rd-4th instar) per leaf. Percent control based on reduction of large nymphs of a test compound compared to solution-only (no test compound) sprayed plants is reported in Table 1-8.

C[C@@H]1OC(c2c(F)cccc2F)=N[C@@H]1c1ccc(I)cc1 (racemic) [Compound 1, (4R,5S)- and (4S,5R)-4-(4-iodophenyl)-2-(2,6-difluorophenyl)-5-methyl-4,5-dihydro-1,3-oxazole]
pest or weed control at 2.5 ppm [1]: 90 to 100% | CA: activity against cotton aphid (% Control rating) [2]: A (90-100) | pest or weed control at 400 ppm [3]: < 50% | pest or weed control at 400 ppm [4]: 60 to 69% | pest or weed control at 400 ppm [5]: < 50% | pest or weed control at 200 ppm [6]: 60 to 69%
